How the values were obtained:
ΔF508-CFTR [1] = molecular target: T1, ΔF508-CFTR (Homo sapiens, UniProt P13569, DEL508-508); assay: Corrector assay, YFP fluorescence plate reader iodide influx in ΔF508-CFTR expressing FRT cells; format: cell-based; settings: for Corrector EC50 / Corrector Vmax / EC50: 18-24 h with compound at 37° C., forskolin 20 μM + genistein 50 μM
T1 construct: expressed in transfected cells; host or cells: Fischer rat thyroid (FRT) epithelial cells, stably transfected
Experimental: (§1) Screening procedures. Screening of compounds for activity was carried out using a Beckman Coulter platform equipped with FLUOstar fluorescence plate readers (Optima; BMG Labtech) with dual syringe pumps and 500±10 nm excitation and 535±15 nm emission filters (Chroma Corp.). For the corrector assay, FRT cells were grown at 37° C./5% CO2 for 18-24 h and then incubated for 18-24 h with 100 μL of medium containing test compounds (25 μM final concentration). At the time of the assay, cells were washed with PBS and then incubated for 10 min with PBS containing forskolin (20 μM) and genistein (50 μM). For the potentiator assay, FRT cells were grown at 37° C./5% CO2 for 18-24 h and then for 18-24 h at 27° C. At the time of the assay, cells were washed with PBS and then incubated for 10 min with PBS (50 μL) containing forskolin (20 μM) and test compound (0-25 μM final concentration). For both the corrector and potentiator assays, each well was assayed individually for I^− influx by recording fluorescence continuously (200 ms per point) for 2 s (baseline) and then for 12 s after rapid addition of 165 μL PBS in which 137 mM Cl^− was replaced by I^−. Initial I^− influx rate was computed by fitting the final 11.5 seconds of the data to an exponential for extrapolation of initial slope, which was normalized for background-subtracted initial fluorescence. All compound plates contained negative controls and positive controls (10 μM Corr-4a for corrector assay; 50 μM genistein for potentiator assay).
(§2) Screening of about 110,000 small molecules was done to identify new ΔF508-CFTR corrector scaffolds having high correction efficiency and/or having independent potentiator activity. […] FRT cells co-expressing human ΔF508-CFTR and a halide-sensing YFP were incubated with test compounds at 37° C. (corrector assay) or 27° C. (potentiator assay). ΔF508-CFTR function was assayed in a plate reader from YFP fluorescence quenching in response to iodide addition in the presence of forskolin (20 μM) plus genistein (50 μM) for corrector assay, or forskolin (20 μM) alone for potentiator assay. As shown in FIG. 1A (left), primary screening for corrector activity was done using a cell-based fluorescence assay of iodide influx in which FRT cells expressing ΔF508-CFTR and an iodide-sensitive YFP were incubated with test compounds at 10 μM for 18-24 h prior to assay. Iodide influx was measured by addition of extracellular iodide in the presence of a potentiator (50 μM genistein) and cAMP agonist (20 μM forskolin). Compound efficacy and potency (from concentration-dependence studies) in the corrector assay were compared to reference bithiazole Corr-4a (10 μM) and to low-temperature rescued cells. Active compounds were counter-screened for potentiator activity (FIG. 1A, right) in which iodide influx was measured in the ΔF508-CFTR expressing FRT cells after low-temperature rescue and in the presence of 20 μM forskolin.
(§3) Screening procedures. Plate reader activity assay was carried out using a Beckman Coulter platform containing a robotic arm, CO2 incubator containing microplate carousel, plate-washer, liquid handling work station, bar code reader, de-lidding station, plate sealer, and FLUOstar fluorescence plate readers (Optima; BMG LABTECH Gmbh), equipped with dual syringe pumps and 500±10 nm excitation and 535±15 nm emission filters (Chroma Corp.). For the corrector assay, ΔF508-CFTR-expressing FRT cells were grown at 37° C. (90% humidity; 5% CO2) for 18-24 h and then incubated for 18-24 h with 100 μL of medium containing test compounds (0-25 μM final concentration). At the time of the assay, cells were washed with PBS and then incubated for 10 min with PBS containing forskolin (20 μM) and genistein (50 μM). For the potentiator assay, FRT cells were grown at 37° C. (90% humidity; 5% CO2) for 18-24 h and then for 18-24 h at 27° C. […]

ΔF508-CFTR [2] = molecular target: T1, ΔF508-CFTR; assay: Potentiator assay, YFP fluorescence plate reader iodide influx in low-temperature rescued ΔF508-CFTR expressing FRT cells; format: cell-based; settings: for EC50 / Potentiator Vmax / Potentiator EC50: forskolin 20 μM + test compound
Experimental: as §1, §2, §3

[3] = Table IX, additional experiments
[4] = Table IX, additional experiments, 18-24 h at 27° C.
[5] = Table VIII, FRT cells, I− influx
[6] = Table VIII, FRT cells 18-24 h at 27° C., I− influx

T1 sequence (P13569 with tags, fused parts or gaps DEL508-508): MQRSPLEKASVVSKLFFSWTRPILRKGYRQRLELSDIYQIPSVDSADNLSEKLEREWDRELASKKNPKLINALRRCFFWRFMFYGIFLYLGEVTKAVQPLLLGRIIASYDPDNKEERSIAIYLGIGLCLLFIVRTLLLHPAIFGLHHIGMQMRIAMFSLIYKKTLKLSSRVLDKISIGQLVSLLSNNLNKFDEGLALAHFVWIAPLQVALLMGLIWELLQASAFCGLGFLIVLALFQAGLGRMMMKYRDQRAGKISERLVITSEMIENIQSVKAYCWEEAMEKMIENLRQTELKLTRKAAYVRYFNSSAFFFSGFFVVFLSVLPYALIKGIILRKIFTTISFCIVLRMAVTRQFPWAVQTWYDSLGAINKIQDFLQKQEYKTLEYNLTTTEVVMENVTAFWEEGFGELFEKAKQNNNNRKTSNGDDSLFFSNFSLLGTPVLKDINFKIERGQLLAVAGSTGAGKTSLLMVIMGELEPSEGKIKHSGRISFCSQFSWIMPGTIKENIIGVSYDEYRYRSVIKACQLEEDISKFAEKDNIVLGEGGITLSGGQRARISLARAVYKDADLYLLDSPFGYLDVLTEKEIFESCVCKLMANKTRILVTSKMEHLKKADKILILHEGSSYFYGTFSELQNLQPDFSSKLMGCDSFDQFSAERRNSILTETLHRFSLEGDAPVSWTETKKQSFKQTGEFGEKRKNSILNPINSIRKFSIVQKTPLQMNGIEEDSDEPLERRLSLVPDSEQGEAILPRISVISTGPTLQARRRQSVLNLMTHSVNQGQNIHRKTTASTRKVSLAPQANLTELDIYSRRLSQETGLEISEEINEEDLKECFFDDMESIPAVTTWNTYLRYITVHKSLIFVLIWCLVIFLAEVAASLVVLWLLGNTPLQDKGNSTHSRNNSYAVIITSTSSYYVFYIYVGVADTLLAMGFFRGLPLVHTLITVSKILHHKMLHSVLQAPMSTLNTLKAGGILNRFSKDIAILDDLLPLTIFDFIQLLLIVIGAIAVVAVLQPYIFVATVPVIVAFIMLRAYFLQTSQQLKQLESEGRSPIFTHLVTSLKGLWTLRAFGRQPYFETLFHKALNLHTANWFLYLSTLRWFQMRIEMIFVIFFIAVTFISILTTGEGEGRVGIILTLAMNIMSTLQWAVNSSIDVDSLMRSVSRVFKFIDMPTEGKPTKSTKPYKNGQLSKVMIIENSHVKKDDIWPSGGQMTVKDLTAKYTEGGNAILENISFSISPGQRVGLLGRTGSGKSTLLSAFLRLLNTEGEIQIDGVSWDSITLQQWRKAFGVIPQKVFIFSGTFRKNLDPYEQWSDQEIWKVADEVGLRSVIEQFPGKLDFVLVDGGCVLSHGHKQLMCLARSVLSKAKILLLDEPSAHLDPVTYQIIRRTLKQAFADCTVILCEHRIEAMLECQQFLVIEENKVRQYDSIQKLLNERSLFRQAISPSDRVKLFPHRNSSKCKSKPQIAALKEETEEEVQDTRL

## Cc1cc(C)c2cc(C#N)c(NCCNC(=O)c3ccccn3)nc2c1 [drawing 167]
ΔF508-CFTR [1]; [3]
  Corrector EC50: inactive
  Corrector Vmax: inactive
ΔF508-CFTR [2]; [4]
  EC50: 1.2 ± 0.4 µM
  Potentiator Vmax: 80 µM/s

## Cc1cc(C)c2cc(C#N)c(N3CCN(C(=O)c4ccncc4)CC3)nc2c1
ΔF508-CFTR [1]; [3]
  Corrector EC50: inactive
  Corrector Vmax: inactive
ΔF508-CFTR [2]; [4]
  Potentiator EC50: inactive
  Potentiator Vmax: inactive

## Cc1cc(C)c2cc(C#N)c(NCCNC(=O)c3cnccn3)nc2c1
ΔF508-CFTR [1]; [3]
  Corrector Vmax: 174 µM/s
  EC50: 6.7 ± 1 µM
ΔF508-CFTR [2]; [4]
  Potentiator Vmax: inactive

## Cc1ccc2cc(C#N)c(N3CCCN(C(=O)c4cccs4)CC3)nc2c1
ΔF508-CFTR [1]; [5]
  Corrector EC50: inactive
  Corrector Vmax: inactive
ΔF508-CFTR [2]; [6]
  EC50: 13 µM
  Potentiator Vmax: 261 µM/s

## COc1ccc2nc(N3CCN(C(=O)c4ccccc4Cl)CC3)c(C#N)cc2c1
ΔF508-CFTR [1]; [5]
  Corrector EC50: inactive
  Corrector Vmax: inactive
ΔF508-CFTR [2]; [6]
  EC50: 13 µM
  Potentiator Vmax: 261 µM/s

## COc1ccccc1C(=O)NCCNc1nc2cc(C)cc(C)c2cc1C#N [drawing 165]
ΔF508-CFTR [1]; [3]
  Corrector Vmax: 114 µM/s
  EC50: 11 ± 0.9 µM
ΔF508-CFTR [2]; [4]
  Potentiator Vmax: 154 µM/s

## COc1ccc(C(=O)NCCCNc2nc3cc(C)cc(C)c3cc2C#N)cc1 [drawing 160]
ΔF508-CFTR [1]; [5]
  Corrector Vmax: 112 µM/s
ΔF508-CFTR [2]; [6]
  EC50: 5 µM
  Potentiator Vmax: 231 µM/s

## Cc1cc(C)c2cc(C#N)c(NCCCNC(=O)c3cccnc3)nc2c1 [drawing 180]
ΔF508-CFTR [1]; [3]
  Corrector Vmax: 140 µM/s
  EC50: 3 ± 0.5 µM
ΔF508-CFTR [2]; [4]
  Potentiator Vmax: 115 µM/s

## COc1ccccc1C(=O)NCCCNc1nc2cc(C)cc(C)c2cc1C#N
ΔF508-CFTR [1]; [3]
  Corrector Vmax: inactive
ΔF508-CFTR [2]; [4]
  EC50: 27.6 ± 2 µM
  Potentiator Vmax: 254 µM/s

## Cc1cc(C)c2cc(C#N)c(NCCNC(=O)c3ccccc3)nc2c1
ΔF508-CFTR [1]; [3]
  Corrector Vmax: inactive
ΔF508-CFTR [2]; [4]
  EC50: 10 ± 2 µM
  Potentiator Vmax: 210 µM/s

## Cc1cc(C)c2cc(C#N)c(NCCNC(=O)c3cccnc3)nc2c1 [drawing 168]
ΔF508-CFTR [1]; [3]
  Corrector Vmax: 151 µM/s
  EC50: 2.7 ± 0.6 µM
ΔF508-CFTR [2]; [4]
  EC50: 13.2 ± 0.6 µM
  Potentiator Vmax: 242 µM/s

## COc1ccccc1C(=O)N1CCN(c2nc3cc(C)cc(C)c3cc2C#N)CC1 [Compound AW1]
ΔF508-CFTR [1]; concentration-dependence in corrector and potentiator I− influx assays (FIG. 2, FIG. 7)
  corrector and potentiator activities, in words: potentiator-only activity
ΔF508-CFTR [2]; piperazine ring in place of diamino ethylene tether
  potentiator activity, in words: significant potentiator activity

## COc1ccccc1C(=O)N1CCN(c2nc3cc(C)cc(C)c3cc2C#N)CC1 [drawing 152]
ΔF508-CFTR [1]; [5]
  Corrector Vmax: inactive
ΔF508-CFTR [2]; [6]
  Potentiator Vmax: 129 µM/s

## COc1ccc(C(=O)NCCNc2nc3cc(C)cc(C)c3cc2C#N)cc1 [drawing 166]
ΔF508-CFTR [1]; [3]
  Corrector Vmax: 172 µM/s
ΔF508-CFTR [2]; [4]
  Potentiator Vmax: 181 µM/s

## COc1ccc(C(=O)NCCNc2nc3cc(C)cc(C)c3cc2C#N)nc1 [drawing 186]
ΔF508-CFTR [1]; [3]
  Corrector Vmax: 88 µM/s
  EC50: 2.7 ± 0.5 µM
ΔF508-CFTR [2]; [4]
  EC50: 3.4 ± 0.5 µM
  Potentiator Vmax: 70 µM/s

## CCOc1ccccc1NC(=S)NCCNc1nc2c(C)cccc2cc1C#N [drawing 144]
ΔF508-CFTR [1]; [5]
  Corrector EC50: inactive
  Corrector Vmax: inactive
ΔF508-CFTR [2]; [6]
  EC50: 6 µM
  Potentiator Vmax: 275 µM/s

## Cc1cc(C)c2cc(C#N)c(N3CCN(C(=O)c4cccnc4)CC3)nc2c1 [drawing 174]
ΔF508-CFTR [1]; [3]
  Corrector EC50: inactive
  Corrector Vmax: inactive
ΔF508-CFTR [2]; [4]
  Potentiator EC50: inactive
  Potentiator Vmax: inactive

## Cc1cc(C)c2cc(C#N)c(NCCNC(=O)c3ccncc3)nc2c1 [drawing 169]
ΔF508-CFTR [1]; [3]
  Corrector Vmax: 176 µM/s
  EC50: 7.3 ± 0.8 µM
ΔF508-CFTR [2]; [4]
  EC50: 10 ± 3.1 µM
  Potentiator Vmax: 220 µM/s

## COc1ccccc1C(=O)N1CCN(c2nc3cc(C)cc(C)c3cc2C#N)CC1 [drawing 170]
ΔF508-CFTR [1]; [3]
  Corrector EC50: inactive
  Corrector Vmax: inactive
ΔF508-CFTR [2]; [4]
  EC50: 1 ± 0.3 µM
  Potentiator Vmax: 129 µM/s

## COc1cccc(C(=O)N2CCN(c3nc4cc(C)cc(C)c4cc3C#N)CC2)c1 [drawing 171]
ΔF508-CFTR [1]; [3]
  Corrector EC50: inactive
  Corrector Vmax: inactive
ΔF508-CFTR [2]; [4]
  Potentiator Vmax: 200 µM/s

## Cc1cc(C)c2cc(C#N)c(NCCNC(=O)c3cccnc3)nc2c1 [drawing 150]
ΔF508-CFTR [1]; [5]
  Corrector Vmax: 223 µM/s
  EC50: 15.2 µM
ΔF508-CFTR [2]; [6]
  EC50: 11 µM
  Potentiator Vmax: 152 µM/s

## COc1ccc(C(=O)NCCNc2nc3c(C)cccc3cc2C#N)cc1OC [drawing 137]
ΔF508-CFTR [1]; [5]
  Corrector Vmax: 223 µM/s
  EC50: 3.8 µM
ΔF508-CFTR [2]; [6]
  EC50: 15 µM
  Potentiator Vmax: 250 µM/s

## Cc1cc(C)c2cc(C#N)c(NCCCNC(=O)c3ccccn3)nc2c1 [drawing 179]
ΔF508-CFTR [1]; [3]
  Corrector Vmax: inactive
ΔF508-CFTR [2]; [4]
  Potentiator Vmax: 233 µM/s

## COc1ccc(C(=O)N2CCN(c3nc4cc(C)cc(C)c4cc3C#N)CC2)cc1 [drawing 172]
ΔF508-CFTR [1]; [3]
  Corrector EC50: inactive
  Corrector Vmax: inactive
ΔF508-CFTR [2]; [4]
  Potentiator Vmax: 281 µM/s

## Cc1cc(C)c2cc(C#N)c(N3CCN(C(=O)c4ccccn4)CC3)nc2c1 [drawing 173]
ΔF508-CFTR [1]; [3]
  Corrector EC50: inactive
  Corrector Vmax: inactive
ΔF508-CFTR [2]; [4]
  EC50: 7.4 ± 0.3 µM
  Potentiator Vmax: 102 µM/s

## COc1ccc(C(=O)NCCNc2nc3cc(C)cc(C)c3cc2C#N)cc1 [drawing 148]
ΔF508-CFTR [1]; [5]
  Corrector Vmax: 172 µM/s
  EC50: 3 µM
ΔF508-CFTR [2]; [6]
  EC50: 4.1 µM
  Potentiator Vmax: 181 µM/s

## COc1cccc(C(=O)NCCNc2nc3cc(C)cc(C)c3cc2C#N)c1 [drawing 146]
ΔF508-CFTR [1]; [5]
  Corrector Vmax: 300 µM/s
ΔF508-CFTR [2]; [6]
  Potentiator Vmax: 306 µM/s

## Cc1cc(C)c2cc(C#N)c(NCCNC(=O)c3ccccn3)nc2c1 [drawing 149]
ΔF508-CFTR [1]; [5]
  Corrector Vmax: inactive
ΔF508-CFTR [2]; [6]
  Potentiator Vmax: 80 µM/s

## COc1ccc2nc(N3CCN(C(=O)c4ccccc4Br)CC3)c(C#N)cc2c1
ΔF508-CFTR [1]; [5]
  Corrector EC50: inactive
  Corrector Vmax: inactive
ΔF508-CFTR [2]; [6]
  EC50: 5 µM
  Potentiator Vmax: 235 µM/s

— patent publication US9073863B2, “Cyanoquinoline compounds having activity in correcting mutant-CFTR processing and increasing ion transport and uses thereof” (The Regents of the University of California, priority 2011, dated 2015)
